# Experiment: The drug is tested on Blautia luti strain: DSM14534 for biotransformation. The drug concentrations were measured before and after a 12-h incubation by liquid-chromatography-coupled mass spectrometry (LC–MS)
# Type: ADME
# Parameters: dose 2 uM, timepoint 0 vs 12 hours
# Details: 2 µM
row,Structure (SMILES),Bacterial Biotransformation
1,C[C@]12C=CC(=O)C=C1CC[C@@H]1[C@@H]2C(=O)C[C@@]2(C)[C@H]1CC[C@]2(O)C(=O)CO [PREDNISONE],Compound NOT metabolized

# Experiment: The drug is tested on Bacteroides ovatus strain: ATCC8483 for biotransformation. The drug concentrations were measured before and after a 12-h incubation by liquid-chromatography-coupled mass spectrometry (LC–MS)
# Details: 2 µM
row,Structure (SMILES),Bacterial Biotransformation
1,C[C@]12C=CC(=O)C=C1CC[C@@H]1[C@@H]2C(=O)C[C@@]2(C)[C@H]1CC[C@]2(O)C(=O)CO [PREDNISONE],Compound NOT metabolized

# Experiment: The drug is tested on Clostridium scindens strain: ATCC35704 for biotransformation. The drug concentrations were measured before and after a 12-h incubation by liquid-chromatography-coupled mass spectrometry (LC–MS)
# Details: 2 µM
row,Structure (SMILES),Bacterial Biotransformation
1,C[C@]12C=CC(=O)C=C1CC[C@@H]1[C@@H]2C(=O)C[C@@]2(C)[C@H]1CC[C@]2(O)C(=O)CO [PREDNISONE],Compound NOT metabolized

# Experiment: The drug is tested on Eubacterium hallii strain: DSM3353 for biotransformation. The drug concentrations were measured before and after a 12-h incubation by liquid-chromatography-coupled mass spectrometry (LC–MS)
# Details: anaerobutyricum hallii, 2 µM
row,Structure (SMILES),Bacterial Biotransformation
1,C[C@]12C=CC(=O)C=C1CC[C@@H]1[C@@H]2C(=O)C[C@@]2(C)[C@H]1CC[C@]2(O)C(=O)CO [PREDNISONE],Compound NOT metabolized

# Experiment: The drug is tested on Subdoligranulum variabile strain: DSM15176 for biotransformation. The drug concentrations were measured before and after a 12-h incubation by liquid-chromatography-coupled mass spectrometry (LC–MS)
# Details: 2 µM
row,Structure (SMILES),Bacterial Biotransformation
1,C[C@]12C=CC(=O)C=C1CC[C@@H]1[C@@H]2C(=O)C[C@@]2(C)[C@H]1CC[C@]2(O)C(=O)CO [PREDNISONE],Compound NOT metabolized

# Experiment: The drug is tested on Enterobacter cancerogenus strain: ATCC35316 for biotransformation. The drug concentrations were measured before and after a 12-h incubation by liquid-chromatography-coupled mass spectrometry (LC–MS)
# Details: 2 µM
row,Structure (SMILES),Bacterial Biotransformation
1,C[C@]12C=CC(=O)C=C1CC[C@@H]1[C@@H]2C(=O)C[C@@]2(C)[C@H]1CC[C@]2(O)C(=O)CO [PREDNISONE],Compound NOT metabolized

# Details: bacteroides fragilis, 12 h, 2 µM
# Description: The drug is tested on Bacteroides fragilis strain: DS-208 for biotransformation. The drug concentrations were measured before and after a 12-h incubation by liquid-chromatography-coupled mass spectrometry (LC–MS)
row,Structure (SMILES),Bacterial Biotransformation
1,C[C@]12C=CC(=O)C=C1CC[C@@H]1[C@@H]2C(=O)C[C@@]2(C)[C@H]1CC[C@]2(O)C(=O)CO [PREDNISONE],Compound NOT metabolized

# Experiment: The drug is tested on Bacteroides cellulosilyticus strain: DSM14838 for biotransformation. The drug concentrations were measured before and after a 12-h incubation by liquid-chromatography-coupled mass spectrometry (LC–MS)
# Details: 2 µM
row,Structure (SMILES),Bacterial Biotransformation
1,C[C@]12C=CC(=O)C=C1CC[C@@H]1[C@@H]2C(=O)C[C@@]2(C)[C@H]1CC[C@]2(O)C(=O)CO [PREDNISONE],Compound NOT metabolized

# Experiment: The drug is tested on Bifidobacterium breve strain: DSM20213 for biotransformation. The drug concentrations were measured before and after a 12-h incubation by liquid-chromatography-coupled mass spectrometry (LC–MS)
# Details: 2 µM
row,Structure (SMILES),Bacterial Biotransformation
1,C[C@]12C=CC(=O)C=C1CC[C@@H]1[C@@H]2C(=O)C[C@@]2(C)[C@H]1CC[C@]2(O)C(=O)CO [PREDNISONE],Compound NOT metabolized

# Experiment: The drug is tested on Clostridium symbiosum strain: ATCC14940 for biotransformation. The drug concentrations were measured before and after a 12-h incubation by liquid-chromatography-coupled mass spectrometry (LC–MS)
# Details: 2 µM
row,Structure (SMILES),Bacterial Biotransformation
1,C[C@]12C=CC(=O)C=C1CC[C@@H]1[C@@H]2C(=O)C[C@@]2(C)[C@H]1CC[C@]2(O)C(=O)CO [PREDNISONE],Compound NOT metabolized

# Details: bacteroides thetaiotaomicron, 12 h, 2 µM
# Description: The drug is tested on Bacteroides thetaiotaomicron strain: VPI-5482 for biotransformation. The drug concentrations were measured before and after a 12-h incubation by liquid-chromatography-coupled mass spectrometry (LC–MS)
row,Structure (SMILES),Bacterial Biotransformation
1,C[C@]12C=CC(=O)C=C1CC[C@@H]1[C@@H]2C(=O)C[C@@]2(C)[C@H]1CC[C@]2(O)C(=O)CO [PREDNISONE],Compound NOT metabolized

# Experiment: The drug is tested on Bacteroides finegoldii strain: DSM17565 for biotransformation. The drug concentrations were measured before and after a 12-h incubation by liquid-chromatography-coupled mass spectrometry (LC–MS)
# Details: 2 µM
row,Structure (SMILES),Bacterial Biotransformation
1,C[C@]12C=CC(=O)C=C1CC[C@@H]1[C@@H]2C(=O)C[C@@]2(C)[C@H]1CC[C@]2(O)C(=O)CO [PREDNISONE],Compound NOT metabolized

# Details: bacteroides thetaiotaomicron, 12 h, 2 µM
# Remark: another data set of the same source
# Description: The drug is tested on Bacteroides thetaiotaomicron strain: 3731 for biotransformation. The drug concentrations were measured before and after a 12-h incubation by liquid-chromatography-coupled mass spectrometry (LC–MS)
row,Structure (SMILES),Bacterial Biotransformation
1,C[C@]12C=CC(=O)C=C1CC[C@@H]1[C@@H]2C(=O)C[C@@]2(C)[C@H]1CC[C@]2(O)C(=O)CO [PREDNISONE],Compound NOT metabolized

# Experiment: The drug is tested on Clostridium sp. strain: fecal isolate for biotransformation. The drug concentrations were measured before and after a 12-h incubation by liquid-chromatography-coupled mass spectrometry (LC–MS)
# Details: 2 µM
row,Structure (SMILES),Bacterial Biotransformation
1,C[C@]12C=CC(=O)C=C1CC[C@@H]1[C@@H]2C(=O)C[C@@]2(C)[C@H]1CC[C@]2(O)C(=O)CO [PREDNISONE],Compound NOT metabolized

# Details: parabacteroides distasonis, 12 h, 2 µM
# Description: The drug is tested on Parabacteroides distasonis strain: ATCC8503 for biotransformation. The drug concentrations were measured before and after a 12-h incubation by liquid-chromatography-coupled mass spectrometry (LC–MS)
row,Structure (SMILES),Bacterial Biotransformation
1,C[C@]12C=CC(=O)C=C1CC[C@@H]1[C@@H]2C(=O)C[C@@]2(C)[C@H]1CC[C@]2(O)C(=O)CO [PREDNISONE],Compound NOT metabolized

# Experiment: The drug is tested on Bacteroides caccae strain: ATCC43185 for biotransformation. The drug concentrations were measured before and after a 12-h incubation by liquid-chromatography-coupled mass spectrometry (LC–MS)
# Details: 2 µM
row,Structure (SMILES),Bacterial Biotransformation
1,C[C@]12C=CC(=O)C=C1CC[C@@H]1[C@@H]2C(=O)C[C@@]2(C)[C@H]1CC[C@]2(O)C(=O)CO [PREDNISONE],Compound NOT metabolized

# Details: bacteroides fragilis, 12 h, 2 µM
# Remark: another data set of the same source
# Description: The drug is tested on Bacteroides fragilis strain: NCTC 9343 for biotransformation. The drug concentrations were measured before and after a 12-h incubation by liquid-chromatography-coupled mass spectrometry (LC–MS)
row,Structure (SMILES),Bacterial Biotransformation
1,C[C@]12C=CC(=O)C=C1CC[C@@H]1[C@@H]2C(=O)C[C@@]2(C)[C@H]1CC[C@]2(O)C(=O)CO [PREDNISONE],Compound NOT metabolized

# Experiment: The drug is tested on Bacteroides fragilis strain: ATCC43859 for biotransformation. The drug concentrations were measured before and after a 12-h incubation by liquid-chromatography-coupled mass spectrometry (LC–MS)
# Details: 2 µM
row,Structure (SMILES),Bacterial Biotransformation
1,C[C@]12C=CC(=O)C=C1CC[C@@H]1[C@@H]2C(=O)C[C@@]2(C)[C@H]1CC[C@]2(O)C(=O)CO [PREDNISONE],Compound NOT metabolized

# Experiment: The drug is tested on Eubacterium rectale strain: ATCC33656 for biotransformation. The drug concentrations were measured before and after a 12-h incubation by liquid-chromatography-coupled mass spectrometry (LC–MS)
# Details: agathobacter rectalis, 2 µM
row,Structure (SMILES),Bacterial Biotransformation
1,C[C@]12C=CC(=O)C=C1CC[C@@H]1[C@@H]2C(=O)C[C@@]2(C)[C@H]1CC[C@]2(O)C(=O)CO [PREDNISONE],Compound NOT metabolized

# Experiment: The drug is tested on Escherichia coli strain: BW25113 for biotransformation. The drug concentrations were measured before and after a 12-h incubation by liquid-chromatography-coupled mass spectrometry (LC–MS)
# Details: 2 µM
row,Structure (SMILES),Bacterial Biotransformation
1,C[C@]12C=CC(=O)C=C1CC[C@@H]1[C@@H]2C(=O)C[C@@]2(C)[C@H]1CC[C@]2(O)C(=O)CO [PREDNISONE],Compound NOT metabolized

# Reference: ChEMBL document CHEMBL5303573, “Mapping human microbiome drug metabolism by gut bacteria and their genes” (Nature, 2019)
